From patent US8278265B2, “Methods, kits and compositions comprising crotamine” (Fundacao de Amparo a Pesquisa do Estado de Sao Paulo—FAPESP, priority 2005, dated 2012)

Tests used:
human fibroblasts = test: In vitro incorporation of Cy3-crotamine in human fibroblasts; format: cell-based; settings: after one hour of incubation, FIG. 2A
Experimental: (§1) Embrionary stem cells (ES) from mice, line USP-1 (Soukoyan, M. A., Kerkis, A. Y., Mello, M. R. B., Kerkis, I. E., Visintin, J. A., Pereira, L. V. (2002), Establishment of New Murine Embryonic Stem Cell Lines for the Generation of Mouse Models of Human Genetic Diseases, Braz. J. Med. Biol. Res. 35, 535-542) in the passage 8-10 were cultured on a layer of γ-irradiated embrionary fibroblasts of mice, kept in DMEM (Gibco, U.S.A.), supplemented with 15% FCS (Gibco, U.S.A.), 1 mM sodium piruvate, 1% non-essential amino acids, 0.1 mM β-mercaptoethanol and 1×103 U/ml murine Leukemia Inhibitor Factor (LIF) (ESGRO-LIF, Gibco). Human lymphoblastoids and primary fibroblasts were cultivated in DMEM and in RPMI, respectively, supplemented with 10% FCS with no antibiotics. Cultures were kept under humid atmosphere at 37° C. and 5% CO2.
(§2) In vitro assay: Semiconffluent cultures of pluripotent and differentiation ES cells (homogeneous cell population), as well as other cell cultures of normal and tumor origin, were kept in small laminar slides placed in 24-well plates containing appropriate culture medium. Cells were incubated for 2-3 minutes to 72 hours in the presence of Cy3-crotamine, under concentrations between 10 μM and 0.01 μM, or as control, just in the presence of the dye agent Cy3 diluted in 1 ml PBS (control). […]

[1] = test system: Murine pluripotent embryonic stem cells; test: In vitro incorporation of Cy3-crotamine in pluripotent embryonic stem cells; format: cell-based; settings: FIG. 2D and E
Experimental: as §1, §2

plasmid DNA = test: Peptide-DNA interaction by circular dichroism; format: binding; settings: molar ratio 200:1 and 1:1 (crotamine:DNA), absence and presence of 150 mM NaCl
Experimental: Circular dichroism spectra were taken in a spectropolarymeter JASCO 810 with a Peltier system for temperature control. The device is regularly calibrated with recrystallized d-10 camphorsulfonic acid. Standards used for the equipment were: wavelength range 190-260 nm; sensitivity 100 mdeg; resolution 0.5 nm; response 8 s; reading speed 50 nm/min; 8 accumulations; temperature 37° C. Samples were analysed in a 1 mm optical path cell in 10 mM sodium phosphate buffer, pH 7.4, in the presence or absence of 150 mM NaCl. The crotamine concentration used was 20 μM and plasmid DNA concentration was 0.1 μM. […]

YKQCHKKGGHCFPKEKICLPPSSDFGKMDCRWRWK CCKKGSG (YKQCHKKGGHCFPKEKICLPPSSDFGKMDCRWRWKCCKKGSG; UniProt Q9PWF3 23-64, looked up) [crotamine]
labeling of human fibroblasts (human fibroblasts): intensively marked
signal on cell islets of pluripotent embryonic stem cells [1]: strong signal
interaction with plasmid DNA by circular dichroism spectra (plasmid DNA): presence of interaction
